Measured values taken from patent US4950662A, “2-oxa-isocephem compounds, compositions containing the same and processes for preparing the same” (Otsuka Pharmaceutical Co., Ltd., priority 1987, dated 1990).
≈ marks a conversion by molar mass, not a printed value. Like-named read-outs stand apart in the source and are kept apart here.

Key:
S. marcescens ATCC-13880 = test: MIC by agar plate dilution method, S. marcescens ATCC-13880; assay type: cell-based; conditions: Serratia marcescens, ATCC13880, inoculum 1 x 10^6 cells/ml
Procedure: (§1) In order to investigate the in vitro activity of the under-mentioned compounds against various bacteria, the minimal inhibitory concentration (MIC) values were determined by the agar plate dilution method [see Chemotherapy, 22, 1123-1128 (1974)].
(§2) Each test inoculum was adjusted to I x 10^6 cells/ml (O.D., 600m : 0.07-0.16).

S. aureus FDA-209-p = test: MIC by agar plate dilution method, S. aureus FDA-209-p; assay type: cell-based, Staphyloccocus aureus; conditions: Staphylococcus aureus, FDA209, inoculum 1 x 10^6 cells/ml
Procedure: as §1, §2

K. pneumoniae NCTC-9632 = test: MIC by agar plate dilution method, K. pneumoniae NCTC-9632; assay type: cell-based; conditions: Klebsiella pneumoniae, NCTC9632
Procedure: as §1, §2

M. morganii IIDKono = test: MIC by agar plate dilution method, M. morganii IIDKono; assay type: cell-based; conditions: Morganella morganii
Procedure: as §1, §2

P. mirabilis ATCC-29906 = test: MIC by agar plate dilution method, P. mirabilis ATCC-29906; assay type: cell-based; conditions: Proteus mirabilis, ATCC29906, inoculum 1 x 10^6 cells/ml
Procedure: as §1, §2

E. coli No. 29 = test: MIC by agar plate dilution method, E. coli No. 29; assay type: cell-based; conditions: Escherichia coli, inoculum 1 x 10^6 cells/ml
Procedure: as §1, §2

E. coli NIHJ = test: MIC by agar plate dilution method, E. coli NIHJ; assay type: cell-based; conditions: Escherichia coli, inoculum 1 x 10^6 cells/ml
Procedure: as §1, §2

P. mirabilis 1287 = test: MIC by agar plate dilution method, P. mirabilis 1287; assay type: cell-based; conditions: Proteus mirabilis, inoculum 1 x 10^6 cells/ml
Procedure: as §1, §2

S. marcescens IFO-12648 = test: MIC by agar plate dilution method, S. marcescens IFO-12648; assay type: cell-based; conditions: Serratia marcescens, IFO12648, inoculum 1 x 10^6 cells/ml
Procedure: as §1, §2

P. aeruginosa NCTC-10490 = test: MIC by agar plate dilution method, P. aeruginosa NCTC-10490; assay type: cell-based; conditions: Pseudomonas aeruginosa, NCTC10490, inoculum 1 x 10^6 cells/ml
Procedure: as §1, §2

M. morganii ATCC-25830 = test: MIC by agar plate dilution method, M. morganii ATCC-25830; assay type: cell-based; conditions: Morganella morganii, ATCC25830
Procedure: as §1, §2

[1] = K. pneumoniae NCTC-9632, inoculum 1 x 10^6 cells/ml, read-out: MIC
[2] = M. morganii IIDKono, inoculum 1 x 10^6 cells/ml, read-out: MIC
[3] = M. morganii ATCC-25830, inoculum 1 x 10^6 cells/ml, read-out: MIC

MIC (S. marcescens ATCC-13880)	MIC (S. aureus FDA-209-p)	MIC (K. pneumoniae NCTC-9632; [1])	MIC (M. morganii IIDKono; [2])	MIC (P. mirabilis ATCC-29906)	MIC (E. coli No. 29)	MIC (E. coli NIHJ)	MIC (P. mirabilis 1287)	MIC (S. marcescens IFO-12648)	MIC (P. aeruginosa NCTC-10490)	MIC (M. morganii ATCC-25830; [3])	Structure (SMILES)	MIC (K. pneumoniae NCTC-9632)	MIC (M. morganii ATCC-25830)	MIC (M. morganii IIDKono)
0.05 mg/L (≈ 0.0944 µM)	0.78 mg/L (≈ 1.47 µM)	≤ 0.025 mg/L	≤ 0.025 mg/L	≤ 0.025 mg/L	≤ 0.025 mg/L	≤ 0.025 mg/L	–	–	–	–	CO/N=C(\C(=O)N[C@@H]1C(=O)N2C(C(=O)[O-])=C(C[n+]3ccc(SCC#N)cc3)OC[C@H]12)c1csc(N)n1 [No. 6, (6S,7S)-7-[2-(2-aminothiazol-4-yl}-2-methoxyiminoaoetamide]-3-[(4-cyanomethyIthio-1-pyridinio)methyl]-Δ^3-0-2-isocephem-4-carboxylate (syn isomer)]	–	–	–
0.1 mg/L (≈ 0.191 µM)	0.2 mg/L (≈ 0.381 µM)	≤ 0.025 mg/L	≤ 0.025 mg/L	≤ 0.025 mg/L	≤ 0.025 mg/L	≤ 0.025 mg/L	–	–	–	–	CO/N=C(\C(=O)N[C@@H]1C(=O)N2C(C(=O)[O-])=C(C[n+]3ccc(-c4cc[nH]n4)cc3)OC[C@H]12)c1csc(N)n1 [No. 7, (6S,7S}-7-[2-[2-aminothiazol-4-Yl}-2-methoxyiminoacetamide]-3-[[4-(3-pyrazolyl)-1-pyridinio]methyl]-Δ^3-0-2-isocephem-4-carboxylate (syn isomer)]	–	–	–
0.39 mg/L (≈ 0.761 µM)	0.39 mg/L (≈ 0.761 µM)	0.1 mg/L (≈ 0.195 µM)	0.2 mg/L (≈ 0.39 µM)	0.1 mg/L (≈ 0.195 µM)	0.05 mg/L (≈ 0.0976 µM)	0.05 mg/L (≈ 0.0976 µM)	–	–	–	–	CO/N=C(\C(=O)N[C@@H]1C(=O)N2C(C(=O)O)=C(CN3CCc4ccccc4C3)OC[C@H]12)c1csc(N)n1 [No. 3, (6S,7S}-7-[2-(2-aminothiazol-4-yl)-2-methoxyiminoacetamide]-3-(1,2,3,4-tetrahydroisoquinolyn-2-yl}methyl-Δ^3-0-2-isocephem-4-carboxylic acid (syn isomer)]	–	–	–
–	0.1 mg/L (≈ 0.19 µM)	≤ 0.025 mg/L	–	–	≤ 0.05 mg/L	0.05 mg/L (≈ 0.095 µM)	0.05 mg/L (≈ 0.095 µM)	0.39 mg/L (≈ 0.741 µM)	25 mg/L (≈ 47.5 µM)	0.2 mg/L (≈ 0.38 µM)	CC(C)O/N=C(\C(=O)N[C@@H]1C(=O)N2C(C(=O)[O-])=C(C[n+]3cccc4c3CCC4)OC[C@H]12)c1csc(N)n1 [No. 12, (6S,7S}-7-[2-(2-amino&hiazol-4-Yl}-2-isopropyloxyiminoacetamide]-3-[(6,7-dihydro-5H-1-pyridinio)]methyl]-Δ^3-0-2-isocephem-4-carboxylate (syn isomer)]	–	–	–
–	0.1 mg/L (≈ 0.181 µM)	≤ 0.025 mg/L	–	–	0.05 mg/L (≈ 0.0907 µM)	0.05 mg/L (≈ 0.0907 µM)	0.1 mg/L (≈ 0.181 µM)	0.2 mg/L (≈ 0.363 µM)	12.5 mg/L (≈ 22.7 µM)	0.2 mg/L (≈ 0.363 µM)	C=CCO/N=C(\C(=O)N[C@@H]1C(=O)N2C(C(=O)[O-])=C(C[n+]3ccc(-c4cnco4)cc3)OC[C@H]12)c1csc(N)n1 [No. 13, (6S,7S}-7-[2-(2-aminothiazol-4-Yl)-2-allyloxyiminoacetamide]-3-[[4-[5-oxazolyl)-1-pyridinio]methyl]-Δ^3-0-2-isocephem-4-carboxylate (syn isomer)]	–	–	–
–	0.2 mg/L (≈ 0.386 µM)	0.1 mg/L (≈ 0.193 µM)	–	–	0.1 mg/L (≈ 0.193 µM)	0.1 mg/L (≈ 0.193 µM)	0.2 mg/L (≈ 0.386 µM)	0.39 mg/L (≈ 0.752 µM)	12.5 mg/L (≈ 24.1 µM)	0.2 mg/L (≈ 0.386 µM)	C[N+]1(CC2=C(C(=O)[O-])N3C(=O)[C@@H](NC(=O)/C(=N\OC4CCCC4)c4csc(N)n4)[C@H]3CO2)CCCC1 [No. 11, (6S,7S)-7-[2-(2-aminothiazol-4-yl)-2-cyclopentyloxyiminoacetamide]-3-(I-methyl-1-pyrrolidinio]methyl-Δ^3-0-2-isocephem-4-carboxylate (syn isomer)]	–	–	–
–	0.1 mg/L (≈ 0.173 µM)	≤ 0.025 mg/L	–	–	0.05 mg/L (≈ 0.0863 µM)	0.1 mg/L (≈ 0.173 µM)	0.05 mg/L (≈ 0.0863 µM)	0.2 mg/L (≈ 0.345 µM)	12.5 mg/L (≈ 21.6 µM)	0.1 mg/L (≈ 0.173 µM)	Nc1nc(/C(=N/OC2CCCC2)C(=O)N[C@@H]2C(=O)N3C(C(=O)[O-])=C(C[n+]4ccc(-c5cnco5)cc4)OC[C@H]23)cs1 [No. 9, (6S,7S}-7-[2-(2-aminothiazol-4-yl)-2-cyclopentyloxyiminoacetamide]-3-[[4-(5-oxazolyl)-1-pyridinio]methyl]-Δ^3-0-2-isocephem-4carboxylate (syn isomer)]	–	–	–
0.39 mg/L (≈ 0.866 µM)	1.56 mg/L (≈ 3.46 µM)	0.2 mg/L (≈ 0.444 µM)	0.2 mg/L (≈ 0.444 µM)	0.2 mg/L (≈ 0.444 µM)	0.1 mg/L (≈ 0.222 µM)	0.1 mg/L (≈ 0.222 µM)	–	–	–	–	CO/N=C(\C(=O)N[C@@H]1C(=O)N2C(C(=O)O)=C(CN3CCCC3)OC[C@H]12)c1csc(N)n1 [No. 1, (6S,7S)-7-[2-(2-aminothiazol-4-yI)-2-methoxyiminoacetamide]-3-(1-pyrolidinyl)methyl-Δ^3-0-2-isocephem-4-carboxylic acid (syn isomer)]	–	–	–
–	0.2 mg/L (≈ 0.406 µM)	0.05 mg/L (≈ 0.102 µM)	–	–	0.1 mg/L (≈ 0.203 µM)	0.1 mg/L (≈ 0.203 µM)	0.1 mg/L (≈ 0.203 µM)	0.39 mg/L (≈ 0.792 µM)	12.5 mg/L (≈ 25.4 µM)	0.1 mg/L (≈ 0.203 µM)	CC(C)O/N=C(\C(=O)N[C@@H]1C(=O)N2C(C(=O)[O-])=C(C[N+]3(C)CCCC3)OC[C@H]12)c1csc(N)n1 [No. 10, (6S,7S)-7-[2-(2-aminothiazol-4-yl)-2-(3-isopropyloxyiminoacetamide]-3-(1-methyl-1pyrrolidinio)methyl-^66 ^3-0-2-isocephem-4-carboxylate (syn isomer)]	–	–	–
0.2 mg/L (≈ 0.38 µM)	0.78 mg/L (≈ 1.48 µM)	0.2 mg/L (≈ 0.38 µM)	0.1 mg/L (≈ 0.19 µM)	0.2 mg/L (≈ 0.38 µM)	0.05 mg/L (≈ 0.095 µM)	0.1 mg/L (≈ 0.19 µM)	–	–	–	–	CO/N=C(\C(=O)N[C@@H]1C(=O)N2C(C(=O)[O-])=C(C[N+]3(C)CCc4ccccc4C3)OC[C@H]12)c1csc(N)n1 (stereo partly drawn) [No. 4, (6S,7S)-7-[2-(2-aminothiazol-4-Yl)-2-methoxyiminoacetamide]3-(2-methyl-2-1,2,3,4-tetrahydroisoquinoline-2-yl)methyl-Δ^3-0-2-isocephem-4-carboxylate (syn isomer)]	–	–	–

Structure (SMILES)	MIC (S. marcescens ATCC-13880)	MIC (S. aureus FDA-209-p)	MIC (K. pneumoniae NCTC-9632; [1])	MIC (M. morganii IIDKono; [2])	MIC (P. mirabilis ATCC-29906)	MIC (E. coli No. 29)	MIC (E. coli NIHJ)	MIC (P. mirabilis 1287)	MIC (S. marcescens IFO-12648)	MIC (P. aeruginosa NCTC-10490)	MIC (M. morganii ATCC-25830; [3])	MIC (K. pneumoniae NCTC-9632)	MIC (M. morganii ATCC-25830)	MIC (M. morganii IIDKono)
CO/N=C(\C(=O)N[C@@H]1C(=O)N2C(C(=O)[O-])=C(C[N+]3(C)CCCC3)OC[C@H]12)c1csc(N)n1 [No. 2, (6S,7S)-7-[2-(2-aminothiazol-4-yl)-2-methoxyiminoacetamide]-3-(I-methyl-1-pyrrolidinio)methyl-Δ^3-0-2-isocephem-4-carboxylate (syn isomer)]	0.1 mg/L (≈ 0.215 µM)	0.39 mg/L (≈ 0.84 µM)	–	0.1 mg/L (≈ 0.215 µM)	0.1 mg/L (≈ 0.215 µM)	0.05 mg/L (≈ 0.108 µM)	0.05 mg/L (≈ 0.108 µM)	–	–	–	–	0.05 mg/L (≈ 0.108 µM)	–	–
CC(C)O/N=C(\C(=O)N[C@@H]1C(=O)N2C(C(=O)[O-])=C(C[n+]3ccc(-c4cnco4)cc3)OC[C@H]12)c1csc(N)n1 [No. 8, (6S,7S)-7-[2-(2-aminothiazol-4-yl}-2-isopropyloxyiminoacetamide]-3-[[4-(5-oxazolyl)-1-pyridinio]methyl]-Δ^3-0-2-isocephem-4-carboxylate (syn isomer)]	–	0.2 mg/L (≈ 0.361 µM)	≤ 0.025 mg/L	–	–	≤ 0.05 mg/L	0.05 mg/L (≈ 0.0903 µM)	0.05 mg/L (≈ 0.0903 µM)	0.2 mg/L (≈ 0.361 µM)	25 mg/L (≈ 45.2 µM)	–	–	0.05 mg/L (≈ 0.0903 µM)	–
CO/N=C(\C(=O)N[C@@H]1C(=O)N2C(C(=O)[O-])=C(C[n+]3ccccc3)OC[C@H]12)c1csc(N)n1 [No. 5, (6S,7S)-7-[2-(2-aminothiazol-4-yl)-2-methoxyiminoacetamide]-3-[(1-pyridinio)methyl]-Δ^3-0-2-isocephem-4-carboxylate (syn isomer)]	0.1 mg/L (≈ 0.218 µM)	0.39 mg/L (≈ 0.851 µM)	–	–	0.1 mg/L (≈ 0.218 µM)	0.05 mg/L (≈ 0.109 µM)	0.05 mg/L (≈ 0.109 µM)	–	–	–	–	0.05 mg/L (≈ 0.109 µM)	–	0.05 mg/L (≈ 0.109 µM)
